Results taken from patent US20230255943A1, “MMP-9 AND MMP-12 INHIBITION FOR TREATING SPINAL CORD INJURY OR RELATED INJURY TO NEUROLOGICAL TISSUE” (The University of Birmingham, priority 2020, published 2023).
Entries after “also recorded” stand apart in the source; their conditions may differ. Where a name gives a salt, the structure may show the parent alone.

Tests used:
[1] = tested on: mice with DC crush injury; assay: Spinal cord water content (oedema) after DC crush injury in mice; type: in vivo, mouse; conditions: for spinal cord water content, comparison of MMP inhibitors (FIG. 4) / spinal cord water content: 3 days after DC injury; for spinal cord water content, comparison of MMP inhibitors (FIG. 4): doses and routes of Table 1, vs DC+vehicle
Protocol: For oral delivery of AZD1236, n=6 adult male C57BL6 mice/group (Charles River, Margate, UK) were randomly allocated to either: (1), Sham (control; partial laminectomy but no DC crush injury); (2), DC crush injury+vehicle (partial laminectomy followed by DC crush injury and injection of vehicle); (3), DC crush injury+100 mg/kg AZD1236; (4), DC crush injury+200 mg/kg AZD1236; and (5), DC crush injury+300 mg/kg AZD1236. For intrathecal (it) delivery of AZD1236, adult male C57BL6 mice (25-30 g) (Charles River, Margate, UK) were randomly allocated to either: (1), Sham (control; partial laminectomy but no DC crush injury); (2), DC crush injury+vehicle (partial laminectomy followed by DC crush injury and injection of vehicle); (3), DC crush injury+2.5 mg/kg AZD1236; (4), DC crush injury+5 mg/kg AZD1236; and (5), DC crush injury+10 mg/kg AZD1236. For intrathecal delivery an indwelling atlanto-occipital intrathecal catheter was inserted into the intrathecal space, as described previously (F. A. Oladosu, B. P. Ciszek, S. C. O'Buckley, A. G. Nackley, Novel intrathecal and subcutaneous catheter delivery systems in the mouse. J Neurosci Methods 264, 119-128 (2016)). Briefly, with mice in the sternal recumbency a small incision was made at the nape of the neck followed by detachment of the muscles on either side of the external occipital crest to expose the A-O membrane. The membrane was incised and a 6 cm Alzet mouse intrathecal catheter (Alzet, Cupertino, Calif., USA) and polyurethane segments were gently guided 2.5 cm into the intrathecal space. The catheter was secured using 4-0 silk sutures (Oasis Medical, IL) and the exposed end of the catheter was sealed off with a stainless-steel plug and affixed to the upper back. Animals were injected immediately with vehicle or AZD1236 followed by a 10 μl PBS catheter flush. Injections were repeated every twice daily for the first 3 days after injury and drugs and vehicle reagents were delivered over 1 min time period using a Hamilton microlitre syringe (Hamilton Co, USA). Where specified intact animals with no surgical procedures were also used. All lesions were administered under 5% isofluorane induced inhalation anaesthesia, with 1.51/min O2. Pre- and post-injury analgesia was also provided.
DC crush injury was administered bilaterally at the T8 vertebral level as described previously (S. Surey, M. Berry, A. Logan, R. Bicknell, Z. Ahmed, Differential cavitation, angiogenesis and wound-healing responses in injured mouse and rat spinal cords. Neuroscience 275, 62-80 (2014); M. L. Read, S. Mir, R. Spice, R. J. Seabright, E. L. Suggate, Z. Ahmed, M. Berry, A. Logan, Profiling RNA interference (RNAi)-mediated toxicity in neural cultures for effective short interfering RNA design. J Gene Med 11, 523-534 (2009)). Briefly, calibrated watchmaker's forceps were separated by 0.5 mm and inserted through the dorsal cord meninges to a depth of 0.45 mm in mice and separated by 1 mm and inserted through the dorsal cord meninges to a depth of 1.0 mm in rats, and the DC were crushed for 3 seconds. AZD1236 or vehicle was administered twice daily by oral gavage or intrathecally, either immediately for the first 3 days or 24 hours after injury and treating twice daily until day 4 (i.e. 3 days of AZD1236 dosing). All experiments were performed with n=6 mice/group and repeated on at least 2-3 independent occasions (total=12-18 animals/group/test).
The lesion site+3 mm either side for mice and the lesion site+5 mm either side for the rat DC model were dissected out and the water content of the spinal cord (as a measure of oedema) was determined at 3 days after DC and CC SCI, as described previously (S. Li, C. H. Tator, Effects of MK801 on evoked potentials, spinal cord blood flow and cord edema in acute spinal cord injury in rats. Spinal Cord 37, 820-832 (1999)). Spinal cords containing the lesion site were weighed on aluminium foil, dried at 105° C. for 24 hr, and re-weighed. […]

[2] = tested on: LPS-stimulated primary microglia; assay: LPS-induced cytokine production by primary microglia (ELISA); type: cell-based, mouse; conditions: LPS 10 ng/ml, 24 h
Protocol: Primary mouse microglia from 6-8-week-old C57BL/6 mouse brains were prepared according to a previously described protocol (Moussaud S, Draheim H J. A new method to isolate microglia from adult mice and culture them for an extended period of time. J Neurosci Methods 2010; 187(2): 243-53). Briefly, the meninges of brains were dissected out, finely minced enzymatically digested using 20 units/ml Papain (all from Sigma). After incubation for 90 min at 37° C., the suspension was centrifuged at 200 g for 7 min and the pellet resuspended in 0.5 mg/ml DNase I (Roche, Manheim, Germany) and triturated with fire-polished Pasteur pipettes of decreasing diameters. The homogenate was then filtered through a 70 μm cell strainer (Beckton Dickinson, Watford, UK), and centrifuged through a Percoll (GE Healthcare, Amersham, UK) gradient. Finally, the cell suspension was resuspended in DMEM/F12 medium supplemented with 10% FBS (all from Invitrogen) and 5 ng/ml of granulocyte colony and macrophage stimulating factor (GM-CSF) (#415-ML, R&D Systems. Watford, UK), plated out in T75 cell culture flasks (Beckton Dickinson) precoated with poly-L-lysine, and maintained at 37° C. and 5% CO2 for approximately 2 weeks. When the cells become confluent, microglia detach and migrate to the medium-air interface, floating and proliferating. The supernatant of the flask was then collected without prior shaking to remove the microglia growing on a mixed glial culture base and centrifuged at 200 g for 7 min. The purity of microglia was determined from each flask by immunocytochemistry for CD11b and confirmed as 95% pure. Before each experiment, microglia were cultured in DMEM/F12 without GM-CSF for at least 3 d.
Microglia were used for all experiments with an in vitro age between 15-20 d in vitro (DIV) and were seeded on glass coverslips in 24-well plates at a density of 3×10^4 cells/well. Microglia were exposed to serum-free media for 24 h before exposing the cells to different concentrations of lipopolyscaccharide (LPS) in preliminary experiments to determine optimal concentrations required to maximally activate our primary microglial cultures. This was determined as 10 ng/ml. For the microglial activation assay, cells were exposed to serum-free medium for 24 h before being exposed to LPS, with or without different concentrations of AZD1236, GM6001, SD2590 and MMP-9 Inhibitor I (all used at 10-500 ng/ml) for a further 24 h. Cell culture supernatant was then collected, centrifuged to remove cell debris and subjected to ELISA to determine the concentrations of TNF-α, IL-1β and IL-6. Experiments were performed in triplicate wells and repeated on 3 independent occasions (n=9 wells/treatment).
TNF-α (#MTA00B), IL-1β (#MLBOOC) and IL-6 (#M6000B) were determined using commercially available kits from R&D Systems, following the manufacturer's instructions.

[3] = tested on: mice with DC crush injury; type: in vivo, mouse; conditions: for number of CTB+ DC axons regenerating, comparison with other MMP inhibitors (FIG. 11): mouse, in vivo

## C[C@]1(CS(=O)(=O)N2CC=C(C#Cc3cnc(C4CC4)nc3)CC2)NC(=O)NC1=O [AZD1236]
[1]
  spinal cord water content, comparison of MMP inhibitors (FIG. 4): far more effective than any of these compounds; also recorded: almost completely ablating DC injury-induced rises
[1]; intrathecal vs oral
  intrathecal dose required for same reduction of water content, as fraction of oral dose: 1/40
[1]; intrathecal, 5.0 and 10.0 mg/kg
  spinal cord water content: reduced to sham-treated levels
[1]; optimal doses, 24 h delay vs immediate
  SCI-induced water content, 24-h delayed treatment: equally as effective as immediate delivery
[1]; oral, twice daily, 200 mg/kg and 300 mg/kg
  spinal cord water content: reducing to sham-treated levels
[2]; 100 ng/ml
  TNF-α, IL-1β and IL-6 production by LPS-activated microglia: returning their concentrations to DMEM/F12-medium control levels
[2]; 500 ng/ml
  TNF-α, IL-1β and IL-6 production by LPS-activated microglia: completely suppressed the production of these cytokines
[2]; 10-500 ng/ml
  TNF-α, IL-1β and IL-6 production by LPS-activated microglia: dose-dependent decrease
[3]; 24 h delay vs immediate
  CTB+ fibres regenerating through the lesion site, 24 h delayed treatment: promoted the same amount
[3]
  number of CTB+ DC axons regenerating, comparison with other MMP inhibitors (FIG. 11): far superior at promoting DC axon regeneration
[3]; oral
  extension of CTB labelled axons from the lesion centre: at least 1000 μm
[3]; oral, vs DC+Vehicle
  CTB+ labeling intensity (percentage of CTB labelled axons): significantly enhanced percentage of CTB labelled axons

## CCN(CC)Cc1cc(C)c(N(Cc2ccccc2)S(=O)(=O)c2ccc(OC)cc2)c(C(=O)NO)c1 [MMP-9 Inhibitor I, reference compound]
[1]
  spinal cord water content, comparison of MMP inhibitors (FIG. 4): significantly reduced spinal cord water content
[2]; 10-500 ng/ml
  TNF-α, IL-1β and IL-6 production by LPS-activated microglia: marginal effects
[3]
  number of CTB+ DC axons regenerating, comparison with other MMP inhibitors (FIG. 11): only a marginal effect on axon regeneration

## CNC(=O)[C@H](Cc1c[nH]c2ccccc12)NC(=O)[C@@H](CC(=O)NO)CC(C)C [GM6001, (2R)—N^4-Hydroxy-N^1-[(1S)-1-(1H-indol-3-ylmethyl)-2-(methylamino)-2-oxoethyl]-2-(2-methylpropyl)butanediamide, reference compound]
[1]
  spinal cord water content, comparison of MMP inhibitors (FIG. 4): significantly reduced spinal cord water content
[2]; 10-500 ng/ml
  TNF-α, IL-1β and IL-6 production by LPS-activated microglia: marginal effects
[3]
  number of CTB+ DC axons regenerating, comparison with other MMP inhibitors (FIG. 11): only a marginal effect on axon regeneration

## COCCN1CCC(C(=O)NO)(S(=O)(=O)c2ccc(Oc3ccc(OC(F)(F)F)cc3)cc2)CC1 [SD2590, N-Hydroxy-1-(2-methoxyethyl)-4-[4-[4-(trifluoromethoxy)phenoxy]phenyl]sulfonyl]-4-piperidinecarboxamide hydrochloride, reference compound]
[1]
  spinal cord water content, comparison of MMP inhibitors (FIG. 4): significantly reduced spinal cord water content
[2]; 10-500 ng/ml
  TNF-α, IL-1β and IL-6 production by LPS-activated microglia: marginal effects
[3]
  number of CTB+ DC axons regenerating, comparison with other MMP inhibitors (FIG. 11): only a marginal effect on axon regeneration
